Reference: US10716850B2, “Anti-inflammatory factor retentate, method of isolation, and use” (Wellin, Inc., priority 2014, dated 2020)

Tests used:
[1] = test system: neutrophil migration into the pleural cavity; experiment: pleural neutrophil migration inhibition assay; type: in vivo, rat; details: for dose range of activity in the neutrophil assay: compared together with Peak 12
Experimental: Neutrophil Migration Inhibition Assay. MAIF anti-inflammatory activity was determined in a pleural neutrophil migration inhibition assay. Female, white laboratory rats weighing 120 to 150 g were injected intrapleurally with 1.0 ml of 1% kappa carrageenin in PBS to induce neutrophil migration into the pleural cavity. Immediately, the rats were injected intraperitoneally with 0.5 ml doses of […] samples in PBS. PBS was used as a control. After four hours, the rats were sacrificed, pleural exudates were collected, and the emigrated neutrophils were counted.

[2] = test system: carrageenan-induced footpad edema; experiment: quantitative rat carrageenan footpad assay with 125I-HSA; type: in vivo; details: given 30 minutes prior to carrageenan; aspirin orally 200 mg per kilogram, MAIF intraperitoneally, all dosages
Experimental: Peak I from the G-10 column, supplied by Stolle Milk Biologics International, was prepared according to the methods described in U.S. Pat. No. 4,956,349. Lactose, obtained from commercial sources, was used as placebo. Aspirin was used as a positive control. Aspirin was dissolved in water and given orally by gastric gavage at the ratio of 200 mg per kilogram, a dose known to be active in the assay. […] The footpad assay was modified by using isotopically labeled human serum albumin (^125I-HSA) that localizes in the carrageenan-induced lesion in direct proportion to the volume of the exudate. By determining the total radioactive count in the footpad and comparing this to the counts in a known volume of plasma from the injected animal, a direct measurement of edema in microliters of plasma equivalents is obtained. ^125I-HSA was injected intravenously at a dose of 1.0 microcurie per rat. Female Dark Agouti rats were used. […]
To conduct the carrageenan footpad assay, 0.1 ml of 2% carrageenan was injected subcutaneously into each hind foot pad of an anesthetized rat. […] Both hind feet were then removed and the levels of radioactivity in each foot and in the 200 μl plasma standard were measured in an automated gamma counter. From these measurements the volume of edema in each foot was calculated and expressed in microliters.

[3] = test system: circulating neutrophils and lymphocytes; experiment: effect on circulating leucocytes; type: in vivo, rat; details: other anti-inflammatory/immunomodulatory agents
Experimental: Two experiments were done. In the first, the MAIF preparation was administered intravenously at a dose of 40 mg/rat to one group of 6 animals and a control group was injected with saline. Blood samples were obtained at baseline, 1, 4, and 24 hours after treatment.
A further dose-response study was carried out in which a group of rats were injected intravenously with saline, 5, 10 or 20 mg of the MAIF preparation. Blood from each rat had been taken 7 days previously to provide baseline values and was taken again 4 hours after the injection of MAIF. Included on the graph are the results obtained from the sample taken 4 hours after the administration of 40 mg the MAIF preparation (see FIG. 31).

Molecule	dose range of activity in the neutrophil assay [1]	effect on circulating leucocytes in the rat [3]	also measured
CC(=O)Oc1ccccc1C(=O)O [aspirin]	active in the high microgram to milligram range		footpad edema [2]: inhibited
O=P1(N(CCCl)CCCl)NCCCO1 (stereo not drawn) [cyclophosphamide]		depletes both circulating lymphocytes and neutrophils	
COc1ccc2c(c1)c(CC(=O)O)c(C)n2C(=O)c1ccc(Cl)cc1 [indomethacin]	active in the high microgram to milligram range		
O=C(O)c1cc(=O)[nH]c(=O)[nH]1 [orotic acid]			inhibitory activity on the migration of rat neutrophils ([1]; in the doses tested): Neither the sialic acid nor the orotic acid exhibited any inhibitory activity
cyclosporin A		causes an increase in the number of circulating neutrophils but lymphocyte numbers are either increased or not affected depending on the dose	
